Experimental data: patent publication US8957238B2, “Process for preparing malathion for pharmaceutical use” (priority 2005, dated 2015)

Test: Storage stability of dry pharmaceutical grade malathion, HPLC (Example 18)
Assay type: physicochemical
Procedure: Purity was determined using a high performance liquid chromatography (HPLC) instrument with a variable wavelength detector.
Isomalathion content was determined using a high performance liquid chromatography (HPLC) instrument with a variable wavelength detector.
Four (4) samples of Dry Pharmaceutical Grade Malathion from Example 16, each weighing about 3-3.5 grams, were placed in separate clear glass bottles closed by a cap coated with polytetrafluoroethylene (PTFE). Each bottle was then inserted into a separate black polyethylene (PE) bag, which was tightly closed with a strip fastener. Each bag was then placed in a separate carton box.
The four (4) samples were stored for three (3) months under the following conditions: • Sample One: 40° C.±2° C. and 75%±5% relative humidity, • Sample Two: 30° C.±2° C. and 60%±5% relative humidity, • Sample Three: 25° C.±2° C. and 60%±5% relative humidity, and • Sample Four: 5° C.±3° C. and ambient relative humidity
The purity of each sample was determined after storage for one (1), two (2), and three (3) months using HPLC as set forth above (See Methodology and Protocols: End-of-Process Determination of Assay, Purity, and Impurities Other Than Isomalathion, End-of-Process Determination of Isomalathion).

[1] = Storage at 5° C. ± 3° C. and ambient relative humidity
[2] = Storage at 25° C. ± 2° C. and 60% ± 5% relative humidity
[3] = Storage at 30° C. ± 2° C. and 60% ± 5% relative humidity
[4] = Storage at 40° C. ± 2° C. and 75% ± 5% relative humidity

CCOC(=O)CC(SP(=S)(OC)OC)C(=O)OCC (stereo not shown) [[(dimethoxyphosphinothioyl)thio]butanedioic acid diethyl ester]
Diethyl fumarate Quantity After 1 Month [1]: <0.01 (LOD) % w/w
Diethyl fumarate Quantity After 2 Months [1]: <0.01 (LOD) % w/w
Diethyl fumarate Quantity After 3 Months [1]: <0.01 (LOD) % w/w
Dimethyl malathion Quantity After 1 Month [1]: <0.02 (LOD) % w/w
Dimethyl malathion Quantity After 2 Months [1]: <0.02 (LOD) % w/w
Dimethyl malathion Quantity After 3 Months [1]: <0.02 (LOD) % w/w
Isomalathion Quantity After 1 Month [1]: <0.02 (LOD) % w/w
Isomalathion Quantity After 2 Months [1]: <0.03 (LOQ) % w/w
Isomalathion Quantity After 3 Months [1]: <0.03 (LOQ) % w/w
Malaoxon Quantity After 1 Month [1]: <0.05 (LOD) % w/w
Malaoxon Quantity After 2 Months [1]: <0.05 (LOD) % w/w
Malaoxon Quantity After 3 Months [1]: <0.05 (LOD) % w/w
MeOOSPO Quantity After 1 Month [1]: <0.04 (LOD) % w/w
MeOOSPO Quantity After 2 Months [1]: <0.04 (LOD) % w/w
MeOOSPO Quantity After 3 Months [1]: <0.04 (LOD) % w/w
MeOOSPS Quantity After 1 Month [1]: 0.1 % w/w
MeOOSPS Quantity After 2 Months [1]: 0.1 % w/w
MeOOSPS Quantity After 3 Months [1]: 0.1 % w/w
MeOSSPO Quantity After 1 Month [1]: <0.02 (LOD) % w/w
MeOSSPO Quantity After 2 Months [1]: <0.02 (LOD) % w/w
MeOSSPO Quantity After 3 Months [1]: <0.02 (LOD) % w/w
Methyl malathion Quantity After 1 Month [1]: 0.05 % w/w
Methyl malathion Quantity After 2 Months [1]: 0.06 % w/w
Methyl malathion Quantity After 3 Months [1]: 0.06 % w/w
O,O-Me, Et Malathion analog Quantity After 1 Month [1]: 0.07 % w/w
O,O-Me, Et Malathion analog Quantity After 2 Months [1]: 0.07 % w/w
O,O-Me, Et Malathion analog Quantity After 3 Months [1]: 0.07 % w/w
Tetraethyl dithiodisuccinate Quantity After 1 Month [1]: 0.06 % w/w
Tetraethyl dithiodisuccinate Quantity After 2 Months [1]: 0.06 % w/w
Tetraethyl dithiodisuccinate Quantity After 3 Months [1]: 0.06 % w/w
Unknown (RRT = 0.38) Quantity After 1 Month [1]: 0.04 % w/w
Unknown (RRT = 0.38) Quantity After 2 Months [1]: 0.04 % w/w
Unknown (RRT = 0.38) Quantity After 3 Months [1]: 0.04 % w/w
Diethyl fumarate Quantity After 1 Month [2]: <0.01 (LOD) % w/w
Diethyl fumarate Quantity After 2 Months [2]: <0.01 (LOD) % w/w
Diethyl fumarate Quantity After 3 Months [2]: <0.01 (LOD) % w/w
Dimethyl malathion Quantity After 1 Month [2]: <0.02 (LOD) % w/w
Dimethyl malathion Quantity After 2 Months [2]: <0.02 (LOD) % w/w
Dimethyl malathion Quantity After 3 Months [2]: <0.02 (LOD) % w/w
Isomalathion Quantity After 1 Month [2]: <0.03 (LOQ) % w/w
Isomalathion Quantity After 2 Months [2]: <0.02 (LOD) % w/w
Isomalathion Quantity After 3 Months [2]: 0.04 % w/w
Malaoxon Quantity After 1 Month [2]: <0.05 (LOD) % w/w
Malaoxon Quantity After 2 Months [2]: <0.05 (LOD) % w/w
Malaoxon Quantity After 3 Months [2]: <0.05 (LOD) % w/w
MeOOSPO Quantity After 1 Month [2]: <0.04 (LOD) % w/w
MeOOSPO Quantity After 2 Months [2]: <0.04 (LOD) % w/w
MeOOSPO Quantity After 3 Months [2]: <0.04 (LOD) % w/w
MeOOSPS Quantity After 1 Month [2]: 0.1 % w/w
MeOOSPS Quantity After 2 Months [2]: 0.1 % w/w
MeOOSPS Quantity After 3 Months [2]: 0.1 % w/w
MeOSSPO Quantity After 1 Month [2]: <0.02 (LOD) % w/w
MeOSSPO Quantity After 2 Months [2]: <0.02 (LOD) % w/w
MeOSSPO Quantity After 3 Months [2]: <0.02 (LOD) % w/w
Methyl malathion Quantity After 1 Month [2]: 0.05 % w/w
Methyl malathion Quantity After 2 Months [2]: 0.05 % w/w
Methyl malathion Quantity After 3 Months [2]: 0.06 % w/w
O,O-Me, Et Malathion analog Quantity After 1 Month [2]: 0.08 % w/w
O,O-Me, Et Malathion analog Quantity After 2 Months [2]: 0.07 % w/w
O,O-Me, Et Malathion analog Quantity After 3 Months [2]: 0.07 % w/w
Tetraethyl dithiodisuccinate Quantity After 1 Month [2]: 0.06 % w/w
Tetraethyl dithiodisuccinate Quantity After 2 Months [2]: 0.06 % w/w
Tetraethyl dithiodisuccinate Quantity After 3 Months [2]: 0.06 % w/w
Unknown (RRT = 0.27) Quantity After 1 Month [2]: <0.02 (LOD) % w/w
Unknown (RRT = 0.27) Quantity After 2 Months [2]: <0.02 (LOD) % w/w
Unknown (RRT = 0.27) Quantity After 3 Months [2]: 0.06 % w/w
Unknown (RRT = 0.38) Quantity After 1 Month [2]: 0.04 % w/w
Unknown (RRT = 0.38) Quantity After 2 Months [2]: 0.04 % w/w
Unknown (RRT = 0.38) Quantity After 3 Months [2]: 0.04 % w/w
Diethyl fumarate Quantity After 1 Month [3]: <0.01 (LOD) % w/w
Diethyl fumarate Quantity After 2 Months [3]: <0.01 (LOD) % w/w
Diethyl fumarate Quantity After 3 Months [3]: <0.01 (LOD) % w/w
Dimethyl malathion Quantity After 1 Month [3]: <0.02 (LOD) % w/w
Dimethyl malathion Quantity After 2 Months [3]: <0.02 (LOD) % w/w
Dimethyl malathion Quantity After 3 Months [3]: <0.02 (LOD) % w/w
Isomalathion Quantity After 1 Month [3]: 0.03 % w/w
Isomalathion Quantity After 2 Months [3]: 0.04 % w/w
Isomalathion Quantity After 3 Months [3]: 0.06 % w/w
Malaoxon Quantity After 1 Month [3]: <0.05 (LOD) % w/w
Malaoxon Quantity After 2 Months [3]: <0.05 (LOD) % w/w
Malaoxon Quantity After 3 Months [3]: <0.05 (LOD) % w/w
MeOOSPO Quantity After 1 Month [3]: <0.04 (LOD) % w/w
MeOOSPO Quantity After 2 Months [3]: <0.04 (LOD) % w/w
MeOOSPO Quantity After 3 Months [3]: <0.04 (LOD) % w/w
MeOOSPS Quantity After 1 Month [3]: 0.1 % w/w
MeOOSPS Quantity After 2 Months [3]: 0.1 % w/w
MeOOSPS Quantity After 3 Months [3]: 0.1 % w/w
MeOSSPO Quantity After 1 Month [3]: <0.02 (LOD) % w/w
MeOSSPO Quantity After 2 Months [3]: <0.02 (LOD) % w/w
MeOSSPO Quantity After 3 Months [3]: <0.02 (LOD) % w/w
Methyl malathion Quantity After 1 Month [3]: 0.05 % w/w
Methyl malathion Quantity After 2 Months [3]: 0.06 % w/w
Methyl malathion Quantity After 3 Months [3]: 0.06 % w/w
O,O-Me, Et Malathion analog Quantity After 1 Month [3]: 0.08 % w/w
O,O-Me, Et Malathion analog Quantity After 2 Months [3]: 0.08 % w/w
O,O-Me, Et Malathion analog Quantity After 3 Months [3]: 0.07 % w/w
Tetraethyl dithiodisuccinate Quantity After 1 Month [3]: 0.06 % w/w
Tetraethyl dithiodisuccinate Quantity After 2 Months [3]: 0.05 % w/w
Tetraethyl dithiodisuccinate Quantity After 3 Months [3]: 0.06 % w/w
Unknown (RRT = 0.06) Quantity After 1 Month [3]: <0.02 (LOD) % w/w
Unknown (RRT = 0.06) Quantity After 2 Months [3]: <0.02 (LOD) % w/w
Unknown (RRT = 0.06) Quantity After 3 Months [3]: 0.04 % w/w
Unknown (RRT = 0.27) Quantity After 1 Month [3]: <0.02 (LOD) % w/w
Unknown (RRT = 0.27) Quantity After 2 Months [3]: 0.07 % w/w
Unknown (RRT = 0.27) Quantity After 3 Months [3]: 0.15 % w/w
Unknown (RRT = 0.38) Quantity After 1 Month [3]: 0.04 % w/w
Unknown (RRT = 0.38) Quantity After 2 Months [3]: 0.04 % w/w
Unknown (RRT = 0.38) Quantity After 3 Months [3]: 0.04 % w/w
Diethyl fumarate Quantity After 1 Month [4]: <0.01 (LOD) % w/w
Diethyl fumarate Quantity After 2 Months [4]: <0.01 (LOD) % w/w
Diethyl fumarate Quantity After 3 Months [4]: <0.02 (LOQ) % w/w
Dimethyl malathion Quantity After 1 Month [4]: <0.02 (LOD) % w/w
Dimethyl malathion Quantity After 2 Months [4]: <0.02 (LOD) % w/w
Dimethyl malathion Quantity After 3 Months [4]: <0.02 (LOD) % w/w
Isomalathion Quantity After 1 Month [4]: 0.06 % w/w
Isomalathion Quantity After 2 Months [4]: 0.1 % w/w
Isomalathion Quantity After 3 Months [4]: 0.1 % w/w
Malaoxon Quantity After 1 Month [4]: <0.05 (LOD) % w/w
Malaoxon Quantity After 2 Months [4]: <0.05 (LOD) % w/w
Malaoxon Quantity After 3 Months [4]: <0.05 (LOD) % w/w
MeOOSPO Quantity After 1 Month [4]: <0.04 (LOD) % w/w
MeOOSPO Quantity After 2 Months [4]: <0.04 (LOD) % w/w
MeOOSPO Quantity After 3 Months [4]: 0.05 % w/w
MeOOSPS Quantity After 1 Month [4]: 0.1 % w/w
MeOOSPS Quantity After 2 Months [4]: 0.2 % w/w
MeOOSPS Quantity After 3 Months [4]: 0.2 % w/w
MeOSSPO Quantity After 1 Month [4]: <0.02 (LOD) % w/w
MeOSSPO Quantity After 2 Months [4]: <0.02 (LOD) % w/w
MeOSSPO Quantity After 3 Months [4]: <0.02 (LOD) % w/w
Methyl malathion Quantity After 1 Month [4]: 0.06 % w/w
Methyl malathion Quantity After 2 Months [4]: 0.06 % w/w
Methyl malathion Quantity After 3 Months [4]: 0.06 % w/w
O,O-Me, Et Malathion analog Quantity After 1 Month [4]: 0.08 % w/w
O,O-Me, Et Malathion analog Quantity After 2 Months [4]: 0.07 % w/w
O,O-Me, Et Malathion analog Quantity After 3 Months [4]: 0.07 % w/w
Tetraethyl dithiodisuccinate Quantity After 1 Month [4]: 0.06 % w/w
Tetraethyl dithiodisuccinate Quantity After 2 Months [4]: 0.05 % w/w
Tetraethyl dithiodisuccinate Quantity After 3 Months [4]: 0.07 % w/w
Unknown (RRT = 0.06) Quantity After 1 Month [4]: <0.02 (LOD) % w/w
Unknown (RRT = 0.06) Quantity After 2 Months [4]: <0.02 (LOD) % w/w
Unknown (RRT = 0.06) Quantity After 3 Months [4]: 0.04 % w/w
Unknown (RRT = 0.25) Quantity After 1 Month [4]: <0.02 (LOD) % w/w
Unknown (RRT = 0.25) Quantity After 2 Months [4]: 0.06 % w/w
Unknown (RRT = 0.25) Quantity After 3 Months [4]: 0.12 % w/w
Unknown (RRT = 0.27) Quantity After 1 Month [4]: 0.10 % w/w
Unknown (RRT = 0.27) Quantity After 2 Months [4]: 0.38 % w/w
Unknown (RRT = 0.27) Quantity After 3 Months [4]: 0.76 % w/w
Unknown (RRT = 0.38) Quantity After 1 Month [4]: 0.04 % w/w
Unknown (RRT = 0.38) Quantity After 2 Months [4]: 0.04 % w/w
Unknown (RRT = 0.38) Quantity After 3 Months [4]: 0.04 % w/w
Storage stability (conclusion in words) (three (3) months at 5, 25, 30 and 40° C. conditions): storage stable
